3 compounds from patent US6166036A, “Lp(a)-lowering agent and apolipoprotein (a) formation suppressing agent” (Taiho Pharmaceutical Co., Ltd., priority 1998, dated 2000) can be followed below.

Data set [1] relates to Lp(a). Put plainly: A test on lowering of the Lp(a) level in crab-eating monkeys. Format: in vivo, crab-eating monkey. The note with it: oral 30 mg/kg, three weeks; for Changing ratio (%) of Lp(a): male, 5 per group, Lp(a) level in blood, average value; for effect on Lp(a) level (in words): conclusion from Table 6. How it is done:
Crab-eating monkeys (male, 2.4 to 3.9 kg in weight) were reared in groups, each group consisting of 5 monkeys. Compound 4 was suspended in a 0.5%, HPMC (hydroxypropylmethyl cellulose) solution in an amount of 30 mg/5 mL, whereby the test compound was prepared. To the specimen-administered group, the test compound was orally administered at a dose of 30 mg/kg. At the starting time of administration and three weeks after administration, the Lp(a) level in the blood of the tested animals was measured. For the measurement, a kit ("Immunosearch Lp(a) TIA") commercially available from Cosmo Bio Co., Ltd. was employed. Namely, according to the procedure as indicated in the kit, the measurement was carried out by adding 256 μl of a phosphate buffer to 7 μl of the serum and then adding the goat anti-human Lp(a) serum to the resulting mixture. For the measurement, a biochemical automatic analyzer ("Hitachi 7170"; product of Hitachi Ltd.) was employed. As a comparative compound, pravastatin and bezafibrate were treated similarly and provided for the test. From the measuring results, a changing ratio (%) of the Lp(a) level at the starting time of administration relative to that three weeks after the administration was determined with regards to each of the monkeys and the average value was expressed as an Lp(a) lowering ratio.

Data set [2] deals with apo(a) gene. Put plainly: Test on suppression of apo(a) gene expression (luciferase assay in HepG2 cells). Format: cell-based, human. The note with it: final concentration of 2 μM, 48 hours; for inhibition at 2 µM: Homo sapiens, relative to DMSO control group, read-out: Expression ratio (%) of apo(a) gene; for effect on expression of apo(a) gene (in words): conclusion from Table 5. How it is done:
This test was carried out in accordance with the method described in "BIOCHEMICAL AND BIOPHYSICAL RESEARCH COMMUNICATIONS 227, 570-575[…] ARTICLE No. 1547". Described specifically, 2 μg/mL of an apo(a) gene (1441 base pairs) separated from the blood of normal volunteers was introduced into HepG2 cells (2×10^5 cells/mL), followed by culturing for 16 hours. Compound 4 was dissolved in DMSO (dimethylsulfoxide) to give a final concentration of 2 μM, to which the cultured cells were added. After culturing for further 48 hours, the expression of an apo(a) gene was measured regarding it as luciferases reaction and therefore, using luciferases assay system (Picagene) of Toyo Ink Mfg. Co., Ltd. for the analysis of gene expression. Namely, the cultured HepG2 cells were dissolved in a liquid to dissolve them therein. The resulting solution was centrifuged to obtain a supernatant. To 200 μl of the resulting supernatant was added 100 μl of a […] substrate, followed by mixing for 15 seconds. The luminescence was measured by a chemo-bioluminescence measuring device (Luminoscan RS) of Dainippon Pharmaceutical Co., Ltd. and expression ratio of an apo(a) gene was determined. The expression ratio of an apo(a) gene was calculated from the ratio to the luminescence of a group (control group) to which the same amount of DMSO had been added. As comparative compounds, pravastatin (HMG-COA reductase inhibitor, sterol synthesis inhibitor) and bezafibrate (fibrate series medicament, antihyperlipoproteinemic) were treated in a similar manner and provided for the test.

Data set [3] deals with beagles. The experiment in a line: Acute toxicity test in beagles. Format: in vivo, beagle dog. The settings on record: 7-month old male beagles, 2 per group, fasted 16 hours; oral 2000 mg/kg in 0.5% HPMC. How it is done:
After 7-month old beagles (male, each group consisting of 2 beagles) were fasted for 16 hours, Compound 4 suspended in a 0.5%, HPMC solution was orally administered at a dose of 2000 mg/kg.

With `CC[C@H](C)C(=O)O[C@H]1C[C@H](O)C=C2C=C[C@H](C)[C@H](CC[C@@H](O)C[C@@H](O)CC(=O)O)[C@H]21` [Pravastatin, pravastatin], in data set [1], the “Changing ratio (%) of Lp(a)” value is given as “+35%” and the “effect on Lp(a) level (in words)” value is on record as “increased the Lp(a) level”. In addition, in data set [2], the inhibition at 2 µM is -27% and the “effect on expression of apo(a) gene (in words)” value (“effect on expression” for short) is given as “reinforced the expression of the apo(a) gene”.

In the case of `CC(C)(Oc1ccc(CCNC(=O)c2ccc(Cl)cc2)cc1)C(=O)O` [Bezafibrate, bezafibrate], in data set [1], the “Changing ratio (%) of Lp(a)” value was “+8%” and the “effect on Lp(a) level (in words)” value is “increased the Lp(a) level”. Also, in data set [2], the inhibition at 2 µM was -3% and the “effect on expression” value is “reinforced the expression of the apo(a) gene”.

For the compound `CC(C)(C)c1ccc(N2C[C@@H](COc3ccc(C(=O)O)cc3)CC2=O)cc1` [Compound 4, (S)-(+)-4-[1-(4-tert-butylphenyl)-2-pyrrolidon-4-yl]methoxybenzoic acid], in data set [1], the “Changing ratio (%) of Lp(a)” value was -33% and the “effect on Lp(a) level (in words)” value is listed as “exhibited excellent Lp(a) lowering effects”. Also, in data set [3], the death cases entry is “neither death case” and the serious side effects entry was “nor serious side effects were recognized”. Also, in data set [2], the inhibition at 2 µM stood at 24% and the “effect on expression” value is on record as “exhibited excellent effects for suppressing the expression of an apo(a) gene”.
